Values of other authors as cited in publication PMC12776573, “Mechanism of Self-Assembly of the Gonadropin Releasing Hormone Antagonist Teverelix into Amyloid Fibrils” (Molecular Pharmaceutics, 2025).
Square brackets hold non-standard residues; d marks the D form. Peptide text beside a SMILES is read from it. dPhe(4-Cl) = N[C@H](Cc1ccc(Cl)cc1)C(=O)O; d2Nal = N[C@H](Cc1ccc2ccccc2c1)C(=O)O; d(hCit) = NC(=O)NCCCC[C@@H](N)C(=O)O; Lys(iPr) = CC(C)NCCCC[C@H](N)C(=O)O; d3Pal = N[C@H](Cc1cccnc1)C(=O)O

Conditions: side chain of Tv thought to be deprotonated on fibril formation; not measured here, no reference given
Excerpt: Calculations establish that a single deprotonation event occurs (see the footnote to Table S1). Considering the pK a of all possible protonation sites in Tv, we think that the pyridine side c ...

CC(=O)N[C@H](Cc1ccc2ccccc2c1)C(=O)N[C@H](Cc1ccc(Cl)cc1)C(=O)N[C@H](Cc1cccnc1)C(=O)N[C@@H](CO)C(=O)N[C@@H](Cc1ccc(O)cc1)C(=O)N[C@H](CCCCNC(N)=O)C(=O)N[C@@H](CC(C)C)C(=O)N[C@@H](CCCCNC(C)C)C(=O)N1CCC[C@H]1C(=O)N[C@H](C)C(N)=O [Tv, Ac-D-Nal(2)-D-Phe(4Cl)-D-Pal(3)-Ser-Tyr-D-Hcit-Leu-Lys(iPr)-Pro-D-Ala-NH2] (Ac-[d2Nal][dPhe(4-Cl)][d3Pal]SY[d(hCit)]L[Lys(iPr)]P[dA]-NH2)
pKa of the pyridine side chain: 5.22
